Source: patent US6734316B2, “Esters of fatty acids and juvenoid alcohols, and a method of their preparation and use” (Institute of Organic Chemistry and Biochemistry ASCR, priority 2000, dated 2004)

Test system: termite Prorhinotermes simplex
Experiment: Force feeding test (FF): juvenilizing effect (induction of soldier caste differentiation) on termite pseudergates
Assay type: in vivo
Details: 500 ppm in treated food, 60 pseudergates, 16 days, soldier caste induction in percents of surviving individuals
From the text: A Way of Screening of the Biological Activity of the Compound Claimed in the claim 1 of the General Formula I Against Termite Prorhinotermes Simplex
Termites have only a sample of food treated with the compound claimed in the claim 1 of the general formula I in the force feeding test (FF), but a choice between a sample of food treated with the compound claimed in the claim 1 of the general formula I and a reference sample of food treated with acetone only. A treatment of the food samples with the compound I claimed in the claim 1 has been made in at least two concentrations, 500 ppm and 5 ppm. A number of 60 pseudergates was exposed to a treatment in each test, and each test is twice repeated. Each test has 16 days duration. The induction of the soldier caste differentiation has been evaluated as the juvenilizing effect. The result is given in percents of the number of surviving individuals. The juvenoid methoprene has been used as the reference compound for testing of the biological activity of the compound I claimed in the claim 1. The results of screening of several structures corresponding the general formula I claimed in the claim 1 in a concentration of 500 ppm are given in Table 1.

COC(C)(C)CCC[C@H](C)C/C=C/C(C)=C/C(=O)OC(C)C (racemic) [Methoprene, methoprene, reference compound]
Juvenilizing effect [%]: 1.3%

CCCCCCCC/C=C\CCCCCCCC(=O)O[C@H]1CCCC[C@H]1Cc1ccc(OCCNC(=O)OCC)cc1 (relative stereo) [Ethyl N-{2-{4-[(cis-2-(cis-9-octadecenoyl)oxycyclohexyl)methyl]phenoxy}ethyl} carbamate]
Juvenilizing effect [%]: 93.7%

CCCC(=O)O[C@H]1CCCC[C@H]1Cc1ccc(OCCNC(=O)OCC)cc1 (relative stereo) [Ethyl N-{2-{4-[(cis-2-butanoyloxycyclohexyl)methyl]phenoxy}ethyl} carbamate]
Juvenilizing effect [%]: 86.1%

CCCCCCCCCCCCCCCC(=O)O[C@H]1CCCC[C@H]1Cc1ccc(OCCNC(=O)OCC)cc1 (relative stereo) [Ethyl N-{2-{4-[(cis-2-hexadecanoyloxycyclohexyl)methyl]phenoxy}ethyl} carbamate]
Juvenilizing effect [%]: 89.1%

CCCCCCCCCCCCCCCCCC(=O)O[C@H]1CCCC[C@H]1Cc1ccc(OCCNC(=O)OCC)cc1 (relative stereo) [Ethyl N-{2-{4-[(cis-2-octadecanoyloxycyclohexyl)methyl]phenoxy}ethyl} carbamate]
Juvenilizing effect [%]: 40.0%

CCCCCCCC/C=C\CCCCCCCC(=O)O[C@@H]1CCCC[C@H]1Cc1ccc(OCCNC(=O)OCC)cc1 (relative stereo) [Ethyl N-{2-{4-[(trans-2-(cis-9-octadecenoyl)oxycyclohexyl)methyl]phenoxy}ethyl} carbamate]
Juvenilizing effect [%]: 64.7%

CCCC(=O)O[C@@H]1CCCC[C@H]1Cc1ccc(OCCNC(=O)OCC)cc1 (relative stereo) [Ethyl N-{2-{4-[(trans-2-butanoyloxycyclohexyl)methyl]phenoxy}ethyl} carbamate]
Juvenilizing effect [%]: 87.4%

CCCCCCCCCCCCCCCC(=O)O[C@@H]1CCCC[C@H]1Cc1ccc(OCCNC(=O)OCC)cc1 (relative stereo) [Ethyl N-{2-{4-[(trans-2-hexadecanoyloxycyclohexyl)methyl]phenoxy}ethyl} carbamate]
Juvenilizing effect [%]: 90.1%

CCCCCCCCCCCCCCCCCC(=O)O[C@@H]1CCCC[C@H]1Cc1ccc(OCCNC(=O)OCC)cc1 (relative stereo) [Ethyl N-{2-{4-[(trans-2-octadecanoyloxycyclohexyl)methyl]phenoxy}ethyl} carbamate]
Juvenilizing effect [%]: 70.0%
